Assay [1] has as its target T1, Peptidyl-prolyl cis-trans isomerase D (Homo sapiens, UniProt Q08752). As to the kind of experiment: Inhibition of Cyclophilin 40 PPIase activity.
Assay [2] deals with T2, Peptidyl-prolyl cis-trans isomerase A (Homo sapiens, UniProt P62937). As to the kind of experiment: Inhibition of Cyclophilin 18 PPIase activity.
Assay [3] addresses T1, Peptidyl-prolyl cis-trans isomerase D. As to the kind of experiment: Inhibition of cyclosporin binding to Cyp40 by fluorescence polarization competition assay. In general terms: In fluorescence polarisation assays a small probe gives low polarisation when free and higher when bound to something large.
The target in assay [4] is T2, Peptidyl-prolyl cis-trans isomerase A. As to the kind of experiment: Inhibition of cyclosporin binding to Cyp18 by fluorescence polarization competition assay.

T1 sequence (Q08752 whole entry): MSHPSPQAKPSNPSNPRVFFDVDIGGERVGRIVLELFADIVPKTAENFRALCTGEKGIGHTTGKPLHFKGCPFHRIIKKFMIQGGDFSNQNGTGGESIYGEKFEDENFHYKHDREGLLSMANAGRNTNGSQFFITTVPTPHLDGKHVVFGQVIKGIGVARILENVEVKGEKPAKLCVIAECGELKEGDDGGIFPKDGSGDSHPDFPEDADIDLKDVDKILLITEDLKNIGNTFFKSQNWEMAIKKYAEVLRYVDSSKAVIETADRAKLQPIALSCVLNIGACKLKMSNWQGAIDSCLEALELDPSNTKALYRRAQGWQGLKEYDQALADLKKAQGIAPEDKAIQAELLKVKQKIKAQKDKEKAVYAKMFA
T2 sequence (P62937 whole entry): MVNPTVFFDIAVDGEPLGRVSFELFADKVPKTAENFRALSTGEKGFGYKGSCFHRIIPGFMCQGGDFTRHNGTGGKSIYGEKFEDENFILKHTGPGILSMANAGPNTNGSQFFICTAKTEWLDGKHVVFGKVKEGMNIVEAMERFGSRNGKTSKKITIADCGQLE

For orientation: Ki means the equilibrium dissociation constant of an inhibitor or competing ligand from its target. Read a high Ki as lower affinity. The term Kd denotes a measure of binding affinity in units of concentration. Lower therefore signals tighter binding. Consider `CC[C@@H]1NC(=O)[C@H]([C@H](O)[C@H](C)C/C=C/c2ccc(CNC(=O)c3ccc(-c4c5ccc(=O)cc-5oc5cc(O)ccc45)c(C(=O)O)c3)cc2)N(C)C(=O)[C@H](C(C)C)N(C)C(=O)[C@H](CC(C)C)N(C)C(=O)[C@H](CC(C)C)N(C)C(=O)[C@@H](C)NC(=O)[C@H](C)NC(=O)[C@H](CC(C)C)N(C)C(=O)[C@H](C(C)C)NC(=O)[C@H](CC(C)C)N(C)C(=O)CN(C)C1=O`, for which the results for the Ki in assay [1] and in assay [2] were 12 nM and 106 nM, respectively. For the same molecule, the Kd came out at 101 nM in assay [3] and 12 nM in assay [4].

The values are drawn from ChEMBL document CHEMBL1687693, “Facile synthesis of a fluorescent cyclosporin a analogue to study cyclophilin 40 and cyclophilin 18 ligands” (ACS Med Chem Lett, 2010).
